The values that follow are results of earlier work, collected in patent US20260248929A1, “MINOXIDIL-CROSSLINKED INJECTABLE HYDROGELS FOR LOCAL AND SUSTAINED INTRADERMAL DELIVER Y” (THE TRUSTEES OF THE UNIVERSITY OF PENNSYLVANIA, priority 2023, published 2026).

The conditions of the data set: topical application to skin.

Regarding `Nc1cc(N2CCCCC2)nc(N)[n+]1[O-]` [minoxidil], the “minoxidil absorbed from a topical application” value is on record as 1%.
